Test results taken from ChEMBL document CHEMBL4732126, “Design, synthesis, and biodistribution studies of new analogues of marine alkaloids: Potent in vitro and in vivo fungicidal agents against Candida spp” (Eur J Med Chem, 2021).
Activity calls are given as the source filed them. No cut-off for these calls is given here.

Columns and labels:
Candida albicans [1] = test: Antifungal activity against Candida albicans isolate 4 assessed as reduction in fungal growth incubated for 48 hrs by broth microdilution method; type: functional
Candida albicans [2] = test: Antifungal activity against Candida albicans isolate 8 assessed as reduction in fungal growth incubated for 48 hrs by broth microdilution method; type: functional
Candida albicans [3] = test: Antifungal activity against Candida albicans isolate 10 assessed as reduction in fungal growth incubated for 48 hrs by broth microdilution method; type: functional
Candida albicans [4] = test: Antifungal activity against Candida albicans isolate 11 assessed as reduction in fungal growth incubated for 48 hrs by broth microdilution method; type: functional
Candida albicans [5] = test: Antifungal activity against Candida albicans isolate 12 assessed as reduction in fungal growth incubated for 48 hrs by broth microdilution method; type: functional
Candida albicans [6] = test: Fungicidal activity against Candida albicans ATCC 18804 assessed as fungal killing incubated for 48 hrs followed by plating on SD agar plate; type: functional; conditions: read-out: MFC99.9
Candida albicans [7] = test: Fungicidal activity against Candida albicans ATCC 10231 assessed as fungal killing incubated for 48 hrs followed by plating on SD agar plate; type: functional; conditions: read-out: MFC99.9
Candida tropicalis = test: Fungicidal activity against Candida tropicalis ATCC 28707 assessed as fungal killing incubated for 48 hrs followed by plating on SD agar plate; type: functional; conditions: read-out: MFC99.9
Candida albicans [8] = test: Fungicidal activity against Candida albicans isolate 3 assessed as fungal killing incubated for 48 hrs followed by plating on SD agar plate; type: functional; conditions: read-out: MFC99.9
Candida albicans [9] = test: Fungicidal activity against Candida albicans isolate 6 assessed as fungal killing incubated for 48 hrs followed by plating on SD agar plate; type: functional; conditions: read-out: MFC99.9
Candida albicans [10] = test: Fungicidal activity against Candida albicans isolate 9 assessed as fungal killing incubated for 48 hrs followed by plating on SD agar plate; type: functional; conditions: read-out: MFC99.9
Candida albicans [11] = test: Fungicidal activity against Candida albicans isolate 12 assessed as fungal killing incubated for 48 hrs followed by plating on SD agar plate; type: functional; conditions: read-out: MFC99.9
Candida albicans [12] = test: Fungicidal activity against Candida albicans ATCC 10231 assessed as reduction in fungal load at 7.8 ug/ml incubated for 4 hrs followed by inoculation on SD agar plate for 48 hrs by time-kill assay; type: functional; conditions: dose 7.8 µg/ml; time 52 hrs
Candida albicans [13] = test: Disruption of cell membrane in Candida albicans ATCC 10231 assessed as increase in intracellular leakage at MIC incubated for 24 hrs by UV spectrophotometric analysis; type: cell-based
Candida albicans [14] = test: Disruption of cell membrane in Candida albicans ATCC 10231 assessed as increase in number of invagination at 2 times of MIC incubated for 1 hr by SEM analysis
Candida albicans [15] = test: Antifungal activity against Candida albicans ATCC 10231 assessed as reduction in fungal growth incubated for 48 hrs in presence of ergosterol by broth microdilution method; type: functional
Nakaseomyces glabratus = test: Antifungal activity against Candida glabrata ATCC 2001 assessed as reduction in fungal growth incubated for 48 hrs in presence of sorbitol by broth microdilution method; type: functional
Pichia kudriavzevii = test: Antifungal activity against Candida krusei ATCC 34135 assessed as reduction in fungal growth incubated for 48 hrs in presence of ergosterol by broth microdilution method; type: functional
Candida albicans [16] = test: Antifungal activity against Candida albicans ATCC 10231 assessed as inhibition of yeast to hypha morphological transition at 15.6 ug/ml measured upto 72 hrs by microscopic analysis; type: functional, organism-based; conditions: dose 15.6 µg/ml, time hrs <=72
Candida albicans [17] = test: Antibiofilm activity against Candida albicans ATCC 10231 assessed as reduction in biofilm formation at 0.24 to 7.81 ug/ml by crystal violet staining based spectrophotometric analysis; type: functional, organism-based; conditions: dose 0.24-7.81 µg/ml
[18] = Toxicity in Swiss mouse assessed as body weight at 20 mg/kg, ip measured after 24 hrs (reference value: 36.25 +/- 0.31 g); type: organism-based; conditions: in vivo
[19] = Toxicity in Swiss mouse assessed as relative lung weight at 3 mg/kg, ip measured after 24 hrs (reference value: 6.35 +/- 0.68 g); type: organism-based; conditions: in vivo
[20] = Toxicity in Swiss mouse assessed as relative lung weight at 20 mg/kg, ip measured after 24 hrs (reference value: 6.35 +/- 0.68 g); type: organism-based; conditions: in vivo
[21] = Toxicity in Swiss mouse assessed as relative kidney weight at 0.5 mg/kg, ip measured after 24 hrs (reference value: 14.91 +/- 0.99 g); type: organism-based; conditions: in vivo
[22] = Toxicity in Swiss mouse assessed as relative kidney weight at 3 mg/kg, ip measured after 24 hrs (reference value: 14.91 +/- 0.99 g); type: organism-based; conditions: in vivo
[23] = Toxicity in Swiss mouse assessed as relative spleen weight at 0.5 mg/kg, ip measured after 24 hrs (reference value: 4.02 +/- 0.59 g); type: organism-based; conditions: in vivo
[24] = Toxicity in Swiss mouse assessed as relative heart weight at 3 mg/kg, ip measured after 24 hrs (reference value: 4.75 +/- 0.60 g); type: organism-based; conditions: in vivo
[25] = Toxicity in Swiss mouse assessed as relative heart weight at 20 mg/kg, ip measured after 24 hrs (reference value: 4.75 +/- 0.60 g); type: organism-based; conditions: in vivo
[26] = Toxicity in Swiss mouse assessed as relative liver weight at 3 mg/kg, ip measured after 24 hrs (reference value: 49.42 +/- 7.17 g); type: organism-based; conditions: in vivo
[27] = Toxicity in Swiss mouse assessed as signs of toxicity at 0.5 to 10 mg/kg, ip measured upto 4 hrs; type: organism-based; conditions: in vivo, dose 0.5-10 mg/kg
[28] = Toxicity in Swiss mouse assessed as ataxia at 20 mg/kg, ip measured after 30 mins; type: organism-based; conditions: in vivo, 0.5 h
[29] = Toxicity in Swiss mouse assessed as death of organism at 0.5 to 20 mg/kg, ip measured for 24 hrs; type: organism-based; conditions: in vivo, dose 0.5-20 mg/kg
Candida albicans [30] = test: In vivo antifungal activity in Swiss mouse infected with Candida albicans ATCC 10231 assessed as reduction in fungal load in liver at 1 mg/kg, ip administered at 2, 24 and 48 hrs post-infection and measured per gm of organ at 24 hrs post-last dose (reference value: 1.80); type: functional; conditions: time 72 hrs
Candida albicans [31] = test: In vivo antifungal activity in Swiss mouse infected with Candida albicans ATCC 10231 assessed as reduction in fungal load in kidney at 1 mg/kg, ip administered at 2, 24 and 48 hrs post-infection and measured per gm of organ at 24 hrs post-last dose (reference value: 2.47); type: functional; conditions: time 72 hrs
[32] = Toxicity in Swiss mouse infected with Candida albicans ATCC 10231 assessed as effect on kidney weight at 10 mg/kg, ip administered at 2, 24 and 48 hrs post-infection and measured at 24 hrs after last dose; type: organism-based; conditions: in vivo, 72 h
[33] = Toxicity in Swiss mouse infected with Candida albicans ATCC 10231 assessed as effect on spleen weight at 10 mg/kg, ip administered at 2, 24 and 48 hrs post-infection and measured at 24 hrs after last dose; type: organism-based; conditions: in vivo, 72 h
[34] = Toxicity in Swiss mouse infected with Candida albicans ATCC 10231 assessed as effect on liver at 10 mg/kg, ip administered at 2, 24 and 48 hrs post-infection and measured at 24 hrs after last dose by macroscopic analysis; type: organism-based; conditions: in vivo, 72 h
[35] = Toxicity in Swiss mouse infected with Candida albicans ATCC 10231 assessed as effect on spleen at 10 mg/kg, ip administered at 2, 24 and 48 hrs post-infection and measured at 24 hrs after last dose by macroscopic analysis; type: organism-based; conditions: in vivo, 72 h

SMILES: [Cl-].[N-]=[N+]=NCCCCCCCCCCCCOCCCc1ccc[n+](Cc2ccccc2)c1
- MIC (Candida albicans [1]): 1.95 µg/mL
- MIC (Candida albicans [2]): 3.9 µg/mL
- MIC (Candida albicans [3]): 15.6 µg/mL
- MIC (Candida albicans [4]): 7.8 µg/mL
- MIC (Candida albicans [5]): 7.8 µg/mL
- MFC (Candida albicans [6]): 31.2 µg/mL
- MFC (Candida albicans [7]): 7.8 µg/mL
- MFC (Candida tropicalis): 15.6 µg/mL
- MFC (Candida albicans [8]): 7.8 µg/mL
- MFC (Candida albicans [9]): 31.2 µg/mL
- MFC (Candida albicans [10]): 31.2 µg/mL
- MFC (Candida albicans [11]): 7.8 µg/mL
- log(activity) (Candida albicans [12]): 3
- Activity (Candida albicans [13]): Active
- Activity (Candida albicans [14]): Active
- MIC (Candida albicans [15]): 7.8 µg/mL
- MIC (Nakaseomyces glabratus): 7.8 µg/mL
- MIC (Pichia kudriavzevii): 15.6 µg/mL
- Activity (Candida albicans [16]): Active
- Activity (Candida albicans [17]): Active
- Activity [18]: 32.5 g
- Activity [19]: 5.19 g
- Activity [20]: 5.38 g
- Activity [21]: 14.41 g
- Activity [22]: 14.73 g
- Activity [23]: 3.85 g
- Activity [24]: 4.45 g
- Activity [25]: 4.93 g
- Activity [26]: 45.03 g
- Activity [27]: Non-Toxic
- Activity [28]: Toxic
- Activity [29]: Non-Toxic
- Activity (Candida albicans [30]): 1.78 log10CFU
- Activity (Candida albicans [31]): 0 log10CFU
- Activity [32]: Non-Toxic
- Activity [33]: Non-Toxic
- Activity [34]: Non-Toxic
- Activity [35]: Non-Toxic
